Data from patent US5300433A, “Methods for the inactivation of viruses in viral-contaminated pharmaceutical compositions” (Rhone-Poulenc Rorer Pharmaceuticals Inc., priority 1991, dated 1994).
Read-outs that look alike come from different tables or passages of the source.

Experiments:
[1] = test system: Factor IX - deficient plasma; assay: Factor IX activity by degree of correction in APTT time of Factor IX-deficient plasma; assay type: biochemical, human
Protocol: A purified Factor IX was obtained from PROTHAR® by chromatography on a monoclonal antibody affinity matrix specific to Factor IX. It contained approximately 0.065 milligrams of protein and 8 units of Factor IX activity per milliliter of solution. The purified preparation was ultrafiltered using an Amicon XM300 membrane and pressure of 5 p.s.i. The ultrafiltration proceeded very rapidly (about 2.5 ml/min). The filtrate was subsequently re-filtered through an Amicon XM100 membrane. The Factor IX activity in the final ultrafiltrate was 67%. Losses were not the result of Factor IX inactivation since specific activity was unaltered.
The product covered by this registered trademark of Armour Pharmaceutical is a stable lyophilized concentrate of human Factors II, VII, IX and X. It is prepared from pooled human plasma. Upon reconstitution it is a concentrated protein solution containing approximately 18 milligrams of total protein and 33 units of Factor IX activity per milliliter. The specific activity of Factor IX in the product ranges from 0 8-2.0 units per milligram of total protein.
In the first run, PROTHAR® was diluted 1:1 with 0.05M Tris-HCL, pH8.0. The resultant solution was ultrafiltered through an Amicon XM100 membrane (molecular weight cut-off of 100 K Daltons) using a pressure of 15 p.s.i. The ultrafiltration proceeded very slowly (about 0.25 ml/min), and the flow rate slowed as the protein inside the stirred cell became more concentrated. Only about 1% of the Factor IX activity found in the starting material appeared in the ultrafiltrate. […] Factor IX activity, in this and all other instances, is assayed by determining the degree of correction in APTT time of Factor IX - deficient plasma. J. H. Lenahan, Phillips and Phillips, Clin. Chem., Vol. 12, page 269 (1966).
Subsequent experiments were performed using an Amicon XM300 membrane (molecular weight cut-off of 300 K Daltons), pressures of 5 p.s.i., and reconstituted PROTHAR® dilutions of 1:6 and 1:10. Only about 17-19% of the Factor IX activity was found in the ultrafiltrate.

HIV [2] = test system: HIV; design: species or system Human Immunodeficiency Virus
From the text: The Factor IX solution obtained is further contacted with HIV virus to obtain a final titer of 8-9 log10 of virus. […]. The solution is then dialyzed to remove the chemical disinfectant and then filtered through a membrane with an effective porosity equivalent to 100 KD molecular weight cut off.

HIV [3] = conditions: initial titer 9 log10
Protocol: A virus stock concentrate was prepared by infecting (CEM) cells at a multiplicity of infection of approximately 1. The cultures were established in 490 cm^2 Corning roller bottles containing approximately 450 ml of RPMI 1640 medium sufficient as is supplemented with 10% fetal bovine serum, penicillin, streptomycin, and 0.002 mg/ml polybrene. […] The total volume of the cultures was 1800 ml. […] The cultures were filtered through a 1.2 uM cellulose acetate filter. Virus was pelleted from the filtrate by centrifugation at 61,000×g for 4 hours at 4° C. The pelleted virus was resuspended with PBS (phosphate buffered saline solution).
Samples A, B and C were allowed to stand for 1 hour at 4° C. and sample D was allowed to stand for 1 hour at 25° C. Each sample was then centrifuged at 105,000×g for 90 minutes. The pellets were resuspended in 1 ml PBS and assayed for HIV by direct observation of the cytopathic effects of the virus on CEM cells. The assay method used in this example inherently rounds off titer to the nearest 0.5 log increment.

| Compound | F.IX recovered ([1]; Example 5, 100 KD molecular weight cut-off filtration) | Factor IX activity recovered ([1]; Example 6, dialysis and 100 KD cut-off filtration) | specific activity after ultrafiltration ([1]; affinity-purified Factor IX, XM300 then XM100 membrane) | Factor IX activity in the final ultrafiltrate ([1]; affinity-purified Factor IX, XM300 then XM100 membrane, 5 p.s.i.) [%] | active Factor IX content, of the initial value ([1]; after 0.1% tri(n-butyl)phosphate and 1% Tween 80) [%] | specific activity ([1]; pre-purified by chromatography on a monoclonal antibody affinity matrix) | Factor IX activity per milliliter of solution ([1]; purified Factor IX, approximately 0.065 milligrams of protein per milliliter) [units per milliliter] | HIV titer after dialysis and filtration (HIV [2]; 100 KD cut-off membrane, after NaSCN treatment) | TOTAL LOG10 ID50 (found) (HIV [3]; Sample A: final NaSCN 1.5, 1 hour, 4° C.) [LOG10 ID50] | TOTAL LOG10 ID50 (found) (HIV [3]; Sample B: final NaSCN 2.0, 1 hour, 4° C.) [LOG10 ID50] | TOTAL LOG10 ID50 (found) (HIV [3]; Sample C: final NaSCN 3.0, no buffer, 1 hour, 4° C.) [LOG10 ID50] | TOTAL LOG10 ID50 (found) (HIV [3]; Sample D: final NaSCN 2.0, 1 hour, 25° C.) [LOG10 ID50] | titer of HIV infectivity (HIV [2]) |
| --- | --- | --- | --- | --- | --- | --- | --- | --- | --- | --- | --- | --- | --- |
| Factor IX: purified Factor IX obtained from PROTHAR by chromatography on a monoclonal antibody affinity matrix specific to Factor IX | 80-100% | 80-100% | unaltered | 67 | > 80 | ≤ 190 units/mg of protein | ~8 | further reduced | – | – | – | – | – |
| N#CS [NaSCN, sodium thiocyanate] | – | – | – | – | – | – | – | – | 1.0 | 1.0 | 1.0 | 1.0 | undetectable levels |
